Test results from patent US20240247069A1, “FGFR3 BINDING MOLECULES AND METHODS OF USE THEREOF” (Regeneron Pharmaceuticals, Inc., priority 2023, published 2024).

What was measured:
Type in all cases: cell-based
Conditions in all cases: FGF1/heparin, 72 hours
[1] = test system: BaF3 cells expressing FGFR3 V557M; test: BaF3 cell proliferation, FGFR3 V557M
Description: (§1) cDNA expressing FGFR3 mutants (S249C, S248C, Y375C, V555M, V555L, S249C+V555M, or S249C+V555L) were synthesized and cloned into pLVX Lenti-viral vector (Thermo Fisher). Viral particles were generated by lipofectamine transfection of LentiX 293T cells using Lenti-X packaging single shots following manufacturer's protocol (Clontech/Takara) and concentrated using Lenti-X concentrator and titer determined using Lenti-X p24 rapid titer kit (Clontech/Takara). BaF3 cells were transduced with virus at ˜0.3 MOI.
(§2) For cell proliferation assays, engineered BaF3/hFGFR3 cells grown in complete medium were washed and plated in IL-3-free culture media±5 μg/ml heparin and 1 nM human FGF1. Cells were plated out at 1×10^5 cells/well into 96-well plates, followed by the addition of 1:3 serially diluted antibodies as indicated in figures. After addition of antibodies, cells were incubated at 37° C. for 72 h followed by the addition of CellTiter-Glo™ (Promega) reagent. The luminescent signal was detected by Envision plate reader (PerkinElmer). Data was analyzed using Prism software (GraphPad). […]

[2] = test system: BaF3 cells expressing FGFR3 S249C+V557M; test: BaF3 cell proliferation, FGFR3 S249C+V557M
Description: as §1, §2

[3] = test system: BaF3 cells expressing FGFR3 S249C+V557L; test: BaF3 cell proliferation, FGFR3 S249C+V557L
Description: as §1, §2

[4] = test system: BaF3 cells expressing FGFR3 V557L; test: BaF3 cell proliferation, FGFR3 V557L
Description: as §1, §2

AZD4547 [reference compound]
ineffective: effect on growth of BaF3 cells expressing FGFR3 V557M [1] | effect on growth of BaF3 cells expressing FGFR3 S249C+V557M [2] | effect on growth of BaF3 cells expressing FGFR3 S249C+V557L [3] | effect on growth of BaF3 cells expressing FGFR3 V557L [4]
